In one assay the test system is Neutrophil. As to the kind of experiment: Inhibition of LTB4 production in A23187-stimulated human neutrophils at 0.001 to 1000 microM incubated for 30 mins by ELISA. It counts as functional, cell-based.
The target of assay [1] is T1, Leukotriene A-4 hydrolase (Homo sapiens, UniProt P09960).
T1 sequence (P09960 whole entry): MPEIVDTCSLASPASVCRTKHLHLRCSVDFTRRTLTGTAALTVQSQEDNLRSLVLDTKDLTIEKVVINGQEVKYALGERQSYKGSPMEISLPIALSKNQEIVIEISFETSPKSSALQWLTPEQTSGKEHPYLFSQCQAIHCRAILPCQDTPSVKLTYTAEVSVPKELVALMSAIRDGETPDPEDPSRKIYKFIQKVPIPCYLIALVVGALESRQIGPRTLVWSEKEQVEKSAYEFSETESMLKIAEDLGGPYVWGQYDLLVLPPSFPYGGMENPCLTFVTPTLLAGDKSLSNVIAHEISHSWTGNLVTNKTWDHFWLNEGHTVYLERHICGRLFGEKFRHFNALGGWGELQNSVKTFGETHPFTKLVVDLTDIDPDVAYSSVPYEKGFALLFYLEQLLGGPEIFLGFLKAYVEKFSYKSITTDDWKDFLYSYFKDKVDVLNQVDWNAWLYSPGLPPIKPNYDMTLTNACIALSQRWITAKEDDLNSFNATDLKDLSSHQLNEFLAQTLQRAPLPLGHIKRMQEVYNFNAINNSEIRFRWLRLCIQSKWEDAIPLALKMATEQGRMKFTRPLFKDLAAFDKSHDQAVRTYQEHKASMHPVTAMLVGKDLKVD
The assay is described as follows: Activation of N-terminal (His)6 and Xpress-tagged LTA4H (unknown origin) expressed in Escherichia coli BL21(DE3) cells assessed as increase in aminopeptidase activity by measuring p-nitroanilide release using L-Alanine-p-nitroanilide incubated for 10 mins by UV plate reader based assay.

The target in assay [2] is T2, Leukotriene A-4 hydrolase (Homo sapiens) (UniProt P09960).
T2 sequence (whole entry): T1 sequence (P09960 whole entry)
The assay is described as follows: Activation of N-terminal (His)6 and Xpress-tagged LTA4H (unknown origin) expressed in Escherichia coli BL21(DE3) cells assessed as increase in aminopeptidase activity by measuring reciprocal allosteric coupling constant for hyperbolic mixed predominantly catalytic activation using L-Alanine-p-nitroanilide incubated for 10 mins by p-nitroanilide release detection based UV plate reader based assay.

The target of assay [3] is T2, Leukotriene A-4 hydrolase (Homo sapiens). The assay is described as follows: Activation of N-terminal (His)6 and Xpress-tagged LTA4H (unknown origin) expressed in Escherichia coli BL21(DE3) cells assessed as increase in aminopeptidase activity by measuring factor by which activator affects catalytic constant for hyperbolic mixed predominantly catalytic activation using L-Alanine-p-nitroanilide incubated for 10 mins by p-nitroanilide release detection based UV plate reader based assay.

Assay [4] shares this target. As to the kind of experiment: Activation of N-terminal (His)6 and Xpress-tagged LTA4H (unknown origin) expressed in Escherichia coli BL21(DE3) cells assessed as increase in aminopeptidase activity by measuring dissociation constant (KX) for hyperbolic mixed predominantly catalytic activation using L-Alanine-p-nitroanilide incubated for 10 mins by p-nitroanilide release detection based UV plate reader based assay.

For assay [5] the target is unchanged. As to the kind of experiment: (§1) Inhibition of N-terminal (His)6 and Xpress-tagged LTA4H (unknown origin) expressed in Escherichia coli BL21(DE3) cells assessed as reduction in aminopeptidase activity by measuring p-nitroanilide release using L-arginine-p-nitroanilide incubated for 10 mins by UV plate reader based assay.
Assay [6] deals with T1, Leukotriene A-4 hydrolase. The assay is described as §1.
For assay [7], the target named is T2, Leukotriene A-4 hydrolase (Homo sapiens). The assay is described as follows: Inhibition of N-terminal (His)6 and Xpress-tagged LTA4H (unknown origin) expressed in Escherichia coli BL21(DE3) cells assessed as reduction in aminopeptidase activity by measuring PGP hydrolysis incubated for 30 mins.

The structures appear in SMILES notation.

One may read the AC50 as the concentration giving half of the maximal activity seen. One may read the IC50 as the concentration that inhibits the measured activity by half. With `COc1ccc(Cc2ccc(-c3csc(N)n3)cc2)cc1`, the inhibition entry (in the assay on Neutrophil; in assay [5]; in assay [7]) was “Dose-dependent effect” each time. In addition, the half-maximal activity concentration (AC50) in assay [1] was found to be 0.21 µM. Also, the K came out at 4.34 in assay [2] and 0.05 µM in assay [4]. The fold change (FC) in assay [3] amounted to 26.4. Besides, the IC50 in assay [6] came out at 13.9 µM.

The values are drawn from ChEMBL document CHEMBL4414660, “Effect of Modifier Structure on the Activation of Leukotriene A4 Hydrolase Aminopeptidase Activity” (J Med Chem, 2019).
